Laboratory results published in patent publication US11104648B2, “Pyrazole derivative” (Zhejiang Research Institute of Chemical Industry Co., Ltd., priority 2018, dated 2021).
Like-named read-outs stand apart in the source and are kept apart here.

How the values were obtained:
Type in all cases: in vivo
[1] = tested on: Tetranychus cinnabarinus Nymphs; assay: Activity assay of Tetranychus cinnabarinus nymphs (spray on broad bean leaves)
Procedure, shortened: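 Compound in DMF (≤10%) diluted in 1‰ Tween 80 water was sprayed onto broad bean leaves carrying nymphs hatched from eggs laid by female adults over 24 h. Kept at 26±2° C., 70%–80% humidity, 16 h light; mortality (no response to touch) assessed after 48 h, three replicates with blank control.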

[2] = tested on: adult Tetranychus cinnabarinus; assay: Activity assay of adult Tetranychus cinnabarinus (whole-plant spray on bean seedlings); conditions: 48 h; for pest or weed control at 1.25 µg/mL: concentration 1.25 mg/L; for pest or weed control at 2.5 µg/mL: concentration 2.5 mg/L
Procedure, shortened: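 Bean seedlings at two-true-leaf stage, infested with adult mites and base count taken, sprayed whole-plant with compound in DMF (≤10%) diluted in 1‰ Tween 80. Three replicates per treatment kept in standard observation room. Surviving mites counted at 48 h to give death rate.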

[3] = tested on: Eggs of Tetranychus Cinnabarinus; assay: Activity assay of eggs of Tetranychus cinnabarinus (spray method, ovicidal); conditions: Tetranychus cinnabarinus; for pest or weed control at 5 µg/mL: concentration 5 mg/L, non-incubated eggs counted as dead; for pest or weed control at 2 µg/mL: concentration 2 mg/L
Procedure, shortened: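 Female mites laid eggs on broad bean leaves for 24 h, adults removed, eggs sprayed with compound in DMF (≤10%)/1‰ Tween 80. Held at 26±2° C, 70–80% humidity, 16 h light; unhatched eggs counted dead once blank control hatched. Three replicates.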

[4] = 48 h, concentration 2.5 mg/L, read-out: nymph-killing activity
[5] = 48 h, nymphs, concentration 0.5 mg/L, parallel determination, read-out: Death rate (%)
[6] = adult mites, parallel determination, read-out: Death rate (%)
[7] = read-out: adult mite-killing activity
[8] = spray, read-out: ovicidal activity
[9] = eggs, parallel determination, read-out: Death rate (%)
[10] = 48 h, concentration 2 mg/L, read-out: nymph-killing activity
[11] = concentration 2.5 mg/L, 48 h, read-out: nymph-killing activity

Compound | pest or weed control at 2.5 µg/mL [1, 4] [%] | pest or weed control at 0.5 µg/mL [1, 5] [%] | pest or weed control at 1.25 µg/mL [2, 6] [%] | pest or weed control at 2.5 µg/mL [2, 7] [%] | pest or weed control at 5 µg/mL [3, 8] [%] | pest or weed control at 2 µg/mL [3, 9] [%] | pest or weed control at 2 µg/mL [1, 10] [%] | pest or weed control at 1.25 µg/mL [2, 7] [%] | pest or weed control at 2 µg/mL [3, 8] [%] | pest or weed control at 2.5 µg/mL [1, 11] [%]
CCn1nc(C)cc1/C(OCOC(=O)C(C)(C)CC)=C(\C#N)c1ccc(C(C)(C)C)cc1 [Compound 241] | ≥ 95 | 100 | 100 | ≥ 90 | ≥ 90 | 100 | – | – | – | –
CCn1nc(C)cc1/C(OCOC(=O)C(C)(C)C)=C(\C#N)c1ccc(C(C)(C)C)cc1 [Compound 230] | ≥ 95 | 98 | 100 | ≥ 90 | ≥ 90 | 100 | ≥ 90 | ≥ 90 | ≥ 90 | –
CCn1nc(C)cc1/C(OCOC(=O)OCCC(C)C)=C(\C#N)c1ccc(C(C)(C)C)cc1 [Compound 554] | ≥ 95 | – | – | ≥ 90 | ≥ 90 | – | – | – | – | –
Cc1nn(C)c(/C(OCOC(=O)c2ccccc2)=C(\C#N)c2ccc(C(C)(C)C)cc2)c1Cl [Compound 89] | ≥ 95 | – | – | ≥ 90 | ≥ 90 | – | – | – | – | –
Cc1nn(C)c(/C(OC(C)OC(=O)Cc2ccccc2)=C(\C#N)c2ccc(C(C)(C)C)cc2)c1Cl (stereo not drawn) [Compound 115] | – | – | – | ≥ 90 | ≥ 90 | – | – | – | – | ≥ 95
C=CCOC(=O)OCO/C(=C(/C#N)c1ccc(C(C)(C)C)cc1)c1cc(C)nn1CC [Compound 570] | ≥ 95 | – | – | ≥ 90 | ≥ 90 | – | ≥ 90 | ≥ 90 | ≥ 90 | –
CCC(=O)OCO/C(=C(/C#N)c1ccc(C(C)(C)C)cc1)c1c(Cl)c(C)nn1C [Compound 77] | ≥ 95 | – | – | ≥ 90 | ≥ 90 | – | – | – | – | –
Cc1cc(/C(OC(C)OC(=O)C(C)C)=C(\C#N)c2ccc(C(C)(C)C)cc2)n(C)n1 (stereo not drawn) [Compound 29] | ≥ 95 | – | – | ≥ 90 | ≥ 90 | – | – | – | – | –
C=CC(=O)OCO/C(=C(/C#N)c1ccc(C(C)(C)C)cc1)c1c(Cl)c(C)nn1C [Compound 92] | ≥ 95 | – | – | ≥ 90 | ≥ 90 | – | – | – | – | –
CCn1nc(C)c(C)c1/C(OCOC(=O)Cc1ccccc1)=C(\C#N)c1ccc(C(C)(C)C)cc1 [Compound 390] | – | – | – | ≥ 90 | ≥ 90 | – | – | – | – | ≥ 95
CCCC(=O)OC(C)O/C(=C(/C#N)c1ccc(C(C)(C)C)cc1)c1c(C)c(C)nn1C (stereo not drawn) [Compound 178] | ≥ 95 | – | – | ≥ 90 | ≥ 90 | – | – | – | – | –
CCn1nc(C)c(Cl)c1/C(OCOC(=O)CC(C)C)=C(\C#N)c1ccc(C(C)(C)C)cc1 [Compound 307] | ≥ 95 | – | – | ≥ 90 | ≥ 90 | – | – | – | – | –
CCC(=O)OC(C)O/C(=C(/C#N)c1ccc(C(C)(C)C)cc1)c1c(Cl)c(C)nn1CC (stereo not drawn) [Compound 327] | ≥ 95 | – | – | ≥ 90 | ≥ 90 | – | ≥ 90 | ≥ 90 | ≥ 90 | –
CCCC(=O)OC(C)O/C(=C(/C#N)c1ccc(C(C)(C)C)cc1)c1c(Cl)c(C)nn1C (stereo not drawn) [Compound 103] | ≥ 95 | – | – | ≥ 90 | ≥ 90 | – | – | – | – | –
CSCC(=O)OC(C)O/C(=C(/C#N)c1ccc(C(C)(C)C)cc1)c1c(Cl)c(C)nn1C (stereo not drawn) [Compound 110] | ≥ 95 | – | – | ≥ 90 | ≥ 90 | – | – | – | – | –
CCn1nc(C)cc1/C(OCOC(=O)OCCCl)=C(\C#N)c1ccc(C(C)(C)C)cc1 [Compound 558] | ≥ 95 | – | – | ≥ 90 | ≥ 90 | – | – | – | – | –
